Where two headings read alike, the source gives them in different places.
Experiment: pharmacokinetic data of tapentadol formulation (blood plasma concentrations)
Format: in vivo, patients/test subjects
Settings: human, formulation containing tapentadol; for AUC(0-inf): read-out: AUC0-∞ (total area under the curve); for half-life: read-out: t1/2 (half-life) (converted)
Source text: For the purposes of the description, the pharmacokinetic parameters, which may be determined from the blood plasma concentrations of the pharmacologically active compound (A), are defined as follows: […]
The above parameters are in each case stated as mean values of the individual values for all investigated patients/test subjects.
In a particularly preferred embodiment the pharmacologically active compound (A) is tapentadol or a physiologically acceptable salt thereof and the pharmaceutical dosage form according to the invention is bioequivalent to a formulation that contains tapentadol or a physiologically acceptable salt thereof in a dosage of 200 mg and 250 mg, respectively, and is characterized by the following pharmacokinetic data: […]

## CC[C@@H](c1cccc(O)c1)[C@@H](C)CN(C)C [tapentadol]
Dosage 200 mg
  Cmax: 62.5 ng/mL
  Tmax: 5 h
  AUC(0-inf): 825 ng·h/mL
  half-life: 5.2 h
Dosage 250 mg
  Cmax: 89.3 ng/mL
  Tmax: 5 h
  AUC(0-inf): 1100 ng·h/mL
  half-life: 5.4 h

Reference: patent US9750701B2, “Pharmaceutical dosage form” (GRÜNENTHAL GMBH, priority 2008, dated 2017)
